Data as given in patent publication US20260308159A1, “BICYCLIC HETEROARYLAMIDES HAVING GPR68 MODULATING ACTIVITY” (RECURSION PHARMACEUTICALS, INC., priority 2023, published 2026).
pIC50: −log10 of the molar value.

What follows are compounds tested against T1, human GPR68 (Homo sapiens, UniProt Q15743) (assay: GPR68 Biochemical Assay (Promega GloSensor cAMP assay, GPR68 antagonism)). Details: HEK293T cells transiently expressing hGPR68, antagonism of pH 5.5 stimulated cAMP, 15 min, read-out: hGPR68 IC50.
T1 construct: encoding full-length human GPR68 (uniprot ID: Q15743); expressed in transfected cells; host or cells: HEK293T
T1 sequence (Q15743 whole entry): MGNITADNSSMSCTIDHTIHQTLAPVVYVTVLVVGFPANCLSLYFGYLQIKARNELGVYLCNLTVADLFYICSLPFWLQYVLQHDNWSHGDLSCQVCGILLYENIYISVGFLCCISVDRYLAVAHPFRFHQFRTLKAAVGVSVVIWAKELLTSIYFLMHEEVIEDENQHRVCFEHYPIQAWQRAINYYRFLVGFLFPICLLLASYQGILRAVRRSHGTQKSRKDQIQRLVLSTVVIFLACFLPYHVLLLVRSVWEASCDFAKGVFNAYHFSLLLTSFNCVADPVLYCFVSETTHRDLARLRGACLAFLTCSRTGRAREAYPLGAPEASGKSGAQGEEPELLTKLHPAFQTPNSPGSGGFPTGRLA
Type: cell-based
Outline: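 Readout is GloSensor cAMP luminescence after 15 min at room temperature, normalised between pH 5.5 stimulation and pH 8.0 minimum controls; IC50 fitted sigmoidally. Test compounds, up to 50 μM final (9-point half-log, 0.5% DMSO), were co-added with pH 5.5 buffer to HEK293T cells transiently expressing full-length human GPR68 plus GloSensor.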
For NC(=O)c1c(CO)nn2c(C(=O)NC3CC(F)(F)C3)ccnc12 [Compound 207, N7-(3,3-difluorocyclobutyl)-2-(hydroxymethyl)pyrazolo[1,5-a]pyrimidine-3,7-dicarboxamide], the pIC50 was 5.30 to 6.30.
CN(C)c1nn2c(C(=O)NC3CC(F)(F)C3)ccnc2c1C(N)=O [Compound 35, N7-(3,3-difluorocyclobutyl)-2-(dimethylamino)pyrazolo[1,5-a]pyrimidine-3,7-dicarboxamide] was tested, and the pIC50 was 5.30 to 6.30.
Compound NC(=O)c1c(COC2CC2)nn2c(C(=O)N[C@H]3C[C@@H](OC(F)(F)F)C3)ccnc12 [Compound 216, 2-(cyclopropoxymethyl)-N7-[cis-3-(trifluoromethoxy)cyclobutyl]pyrazolo[1,5-a]pyrimidine-3,7-dicarboxamide] has a pIC50 of over 7.30.
Work on [2H]C([2H])([2H])OCc1nn2c(C(=O)N[C@H]3C[C@@H](OC(F)(F)F)C3)ccnc2c1C(N)=O [Compound 157, 2-(trideuteriomethoxymethyl)-N7-[cis-3-(trifluoromethoxy)cyclobutyl]pyrazolo[1,5-a]pyrimidine-3,7-dicarboxamide] yielded a pIC50 of over 7.30.
CSCc1nn2c(C(=O)N[C@H]3C[C@@H](OC(F)(F)F)C3)ccnc2c1C(N)=O [Compound 217, 2-(methylsulfanylmethyl)-N7-[cis-3-(trifluoromethoxy)cyclobutyl]pyrazolo[1,5-a]pyrimidine-3,7-dicarboxamide] was tested, and the pIC50 was over 7.30.
Compound COCc1nn2c(C(=O)NC3CCc4ccc(OC)cc4C3)ccnc2c1C(N)=O (stereo not shown) [Compound 73, 2-(methoxymethyl)-N7-(7-methoxytetralin-2-yl)pyrazolo[1,5-a]pyrimidine-3,7-dicarboxamide] has a pIC50 of over 7.30.
Work on CCC(CNC(=O)c1ccnc2c(C(N)=O)cnn12)Oc1cccc(C)c1 (stereo not shown) [Compound 96, N7-[2-(3-methylphenoxy)butyl]pyrazolo[1,5-a]pyrimidine-3,7-dicarboxamide] yielded a pIC50 of 4.30 to 5.30.
Work on NC(=O)c1c(OCC2CC2)nn2c(C(=O)NC3Cc4ccccc4C3)ccnc12 [Compound 142, 2-(cyclopropylmethoxy)-N7-indan-2-yl-pyrazolo[1,5-a]pyrimidine-3,7-dicarboxamide] yielded a pIC50 of over 7.30.
Work on COCc1nn2c(C(=O)NC3COc4c(F)cc(F)cc43)ccnc2c1C(N)=O (stereo not shown) [Compound 191, N7-(5,7-difluoro-2,3-dihydrobenzofuran-3-yl)-2-(methoxymethyl)pyrazolo[1,5-a]pyrimidine-3,7-dicarboxamide] yielded a pIC50 of over 7.30.
In the case of COCc1nn2c(C(=O)NC3CCS(=O)(=O)c4ccccc43)cc(C)nc2c1C(N)=O (stereo not shown) [Compound 241, N7-(1,1-dioxo-3,4-dihydro-2H-thiochromen-4-yl)-2-(methoxymethyl)-5-methyl-pyrazolo[1,5-a]pyrimidine-3,7-dicarboxamide], the pIC50 was 6.30 to 7.30.
Cc1nn2c(C(=O)NC3COc4ccccc4C3)ccnc2c1C(N)=O (stereo not shown) [Compound 47, N7-chroman-3-yl-2-methyl-pyrazolo[1,5-a]pyrimidine-3,7-dicarboxamide] was tested, and the pIC50 was 5.30 to 6.30.
Work on O=C(NC1Cc2ccccc2C1)c1cccc2c(-c3ncco3)cnn12 [Compound 31, N-indan-2-yl-3-oxazol-2-yl-pyrazolo[1,5-a]pyridine-7-carboxamide] yielded a pIC50 of 4.30 to 5.30.
Compound COCc1nn2c(C(=O)NCc3ccc(F)cc3F)ccnc2c1C(N)=O [Compound 83, N7-[(2,4-difluorophenyl)methyl]-2-(methoxymethyl)pyrazolo[1,5-a]pyrimidine-3,7-dicarboxamide] has a pIC50 of over 7.30.
For CN(C)CCNc1nn2c(C(=O)NC3Cc4ccccc4C3)ccnc2c1C(N)=O [Compound 23, 2-[2-(dimethylamino)ethylamino]-N7-indan-2-yl-pyrazolo[1,5-a]pyrimidine-3,7-dicarboxamide], the pIC50 was 4.00 to 4.30.
NC(=O)c1cnn2c(C(=O)NC3Cc4cccc(Oc5ccc(Cl)cc5)c4C3)ccnc12 (stereo not shown) [Compound 16, N7-[4-(4-chlorophenoxy)indan-2-yl]pyrazolo[1,5-a]pyrimidine-3,7-dicarboxamide] gave a pIC50 of 4.00 to 4.30.
COCc1nc2c(C(=O)N[C@H]3CCOc4cc(F)ccc43)ccnn2c1C(N)=O [Compound 108, 2-(methoxymethyl)-N8-[(4S)-7-fluorochroman-4-yl]imidazo[1,2-b]pyridazine-3,8-dicarboxamide] showed a pIC50 of over 7.30.
In the case of CO[C@H]1C[C@@H](NC(=O)c2ccnc3c(C(N)=O)cnn23)C1 [Compound 11, N7-(cis-3-methoxycyclobutyl)pyrazolo[1,5-a]pyrimidine-3,7-dicarboxamide], the pIC50 was 4.30 to 5.30.
With [2H]C([2H])([2H])OCc1nn2c(C(=O)NC3Cc4cccnc4C3)ccnc2c1C(N)=O (stereo not shown) [Compound 160, N7-(6,7-dihydro-5H-cyclopenta[b]pyridin-6-yl)-2-(trideuteriomethoxymethyl)pyrazolo[1,5-a]pyrimidine-3,7-dicarboxamide] the pIC50 was over 7.30.
COCc1nn2c(C(=O)N[C@@H]3Cc4ccccc4[C@@H]3O)ccnc2c1C(N)=O (relative stereo) [Compound 200, N7-(cis-1-hydroxyindan-2-yl)-2-(methoxymethyl)pyrazolo[1,5-a]pyrimidine-3,7-dicarboxamide] gave a pIC50 of over 7.30.
In the case of COCc1nn2c(C(=O)NC3CC(F)(F)C3)ccnc2c1C(N)=O [Compound 58, N7-(3,3-difluorocyclobutyl)-2-(methoxymethyl)pyrazolo[1,5-a]pyrimidine-3,7-dicarboxamide], the pIC50 was over 7.30.
In the case of NC(=O)c1cnn2c(C(=O)NC3Cc4cccc(CCC(F)(F)F)c4C3)ccnc12 (stereo not shown) [Compound 14, N7-[4-(3,3,3-trifluoropropyl)indan-2-yl]pyrazolo[1,5-a]pyrimidine-3,7-dicarboxamide], the pIC50 was 5.30 to 6.30.
Work on COCc1nn2c(C(=O)NC3CS(=O)(=O)C3)ccnc2c1C(N)=O [Compound 225, N7-(1,1-dioxothietan-3-yl)-2-(methoxymethyl)pyrazolo[1,5-a]pyrimidine-3,7-dicarboxamide] yielded a pIC50 of over 7.30.
COCc1nn2c(C(=O)N[C@H]3CCOc4cc(F)ccc43)ccnc2c1C(N)=O [Compound 123, 2-(methoxymethyl)-N7-[(4S)-7-fluorochroman-4-yl]pyrazolo[1,5-a]pyrimidine-3,7-dicarboxamide] gave a pIC50 of over 7.30.
COCc1nn2c(C(=O)NC3CC(F)(F)c4ccccc43)ccnc2c1C(N)=O (stereo not shown) [Compound 129, N7-(3,3-difluoroindan-1-yl)-2-(methoxymethyl)pyrazolo[1,5-a]pyrimidine-3,7-dicarboxamide] showed a pIC50 of over 7.30.
With CCC1(CC)CC(NC(=O)c2ccnc3c(C(N)=O)cnn23)C1 [Compound 10, N7-(3,3-diethylcyclobutyl)pyrazolo[1,5-a]pyrimidine-3,7-dicarboxamide] the pIC50 was 4.00 to 4.30.
For COc1ccc2c(c1)CC(NC(=O)c1ccnc3c(C(N)=O)cnn13)C2 (stereo not shown) [Compound 3, N7-(5-methoxyindan-2-yl)pyrazolo[1,5-a]pyrimidine-3,7-dicarboxamide], the pIC50 was 4.00 to 4.30.

Same assay, conditions: hGPR68 IC50, HEK293T cells transiently expressing hGPR68, antagonism of pH 5.5 stimulated cAMP, 15 min
Work on COCc1cc(C(=O)NC2CC(F)(F)C2)n2nc(C)c(C(N)=O)c2n1 [Compound 39, N7-(3,3-difluorocyclobutyl)-5-(methoxymethyl)-2-methyl-pyrazolo[1,5-a]pyrimidine-3,7-dicarboxamide] yielded a pIC50 of 5.30 to 6.30.
Cc1cnc2c(C(N)=O)c(C)nn2c1C(=O)NC1CC(F)(F)C1 [Compound 38, N7-(3,3-difluorocyclobutyl)-2,6-dimethyl-pyrazolo[1,5-a]pyrimidine-3,7-dicarboxamide] gave a pIC50 of 4.30 to 5.30.
